Structures can show the parent of a compound that is named as a salt. Where two headings read alike, the source gives them in different places.
How the values were obtained:
[1] = Solubility at 25° C. (w/v), saturated solutions, Elson-Morgan colorimetric method; assay type: physicochemical; conditions: for solubility thermodynamic: w/v
Procedure: Solubility (at 25° C.--w/v).
This test was carried out by preparing saturated solutions of glucosamine-SP in various solvents and determining the concentration of the glucosamine by the Elson-Morgan colorimetric method mentioned above.

pH of aqueous solution = assay type: physicochemical
Procedure: The pH of an aqueous saturated solution of glucosamine-SP at 20° C. is 3.0±0.2.

mice-embryo fibroblast [2] = experiment: Stimulation of the production of soluble GAG in mice-embryo fibroblast cultures, uptake of ^35 S; assay type: cell-based, mice (strain C57 BL/6 stCrl)
Procedure: (§2) For this purpose, primary cultures of mice-embryo fibroblasts (strain C57 BL/6 stCrl) were prepared by mechanical and enzymatic dissociation (in Trypsin Versene mixture-Microbiological Associates) of the embryos taken from the mother on the 18th day of pregnancy. The culture medium is the Eagle medium modified by Dulbecco and supplemented with 15% of calf foetus serum. The incubation atmosphere consists of 5% of carbon dioxide in air at 37° C. 24 hours after innoculation, the medium is replaced by a new medium containing the drug under examination and the radioactive precursor (Na2^35 SO4) for the measurement of the synthesis both of soluble and tissue-bound GAG; the culture is left to incubate for a further 24 hours and then the culture medium (containing the soluble GAG) and fibroblasts (containing the tissue-bound GAG) are separated.
(§3) The soluble GAG are isolated from the culture medium by precipitation with a solution of 5% trichloroacetic acid in ice-water while the fibroblast residues, containing the tissue-bound GAG, after repeated washings with physiological solutions, are dissolved in [sequence] or VERSENE.
(§4) The quantity of ^35 S incorporated both in the soluble GAG and in the tissue-bound GAG are evaluated by the usual scintillation methods and expressed in cpm (counts per minute).
(§5) The tests were carried out five times for each sample in order to allow the results to be evaluated statistically.

mice-embryo fibroblast [3] = experiment: Stimulation of the production of tissue-bound GAG in mice-embryo fibroblast cultures, uptake of ^35 S; assay type: cell-based, mice (strain C57 BL/6 stCrl)
Procedure: as §2, §3, §4, §5

[4] = system: granuloma from cotton pellets; experiment: Anti-inflammatory activity, granuloma induced by cotton pellets; assay type: in vivo, female albino rats of the Sprague Dawley strain; conditions: for Average dry weight of the granuloma (average ± s.e.): in mg (unit assumed)
Procedure: The test consists of evaluating the capacity of the substances under examination to inhibit the formation of granuloma following the subcutaneous implantation of extraneous bodies (in this case, cotton pellets). […] One group of animals was used as a control. […] After the subcutaneous implant of 2 cotton pellets each having a weight of 20 mg into the dorsal region, the animals were administered daily, for 4 consecutive days, with the substances under examination in the doses given above.

Acute toxicity in mice = experiment: Acute toxicity in mice; set-up: species or system Swiss NMRI mice; conditions: mouse, in vivo; for LD50 at 240 h: 10 days observation, read-out: DL50
Excerpt: Swiss NMRI mice having an average weight of 20±2 g, subdivided in groups of 10 animals (5 females and 5 males) were used for each dose and for each method of administration.
The methods of administration were: oral by means of gastric probe, intramuscular and endovenous into the caudal vein.
(§1) The observation time after administration was 10 days.

Acute toxicity in rats = experiment: Acute toxicity in rats; set-up: species or system Sprague Dawley albino rats; conditions: rat, in vivo; for LD50 at 240 h: 10 days observation, read-out: DL50
Excerpt: Sprague Dawley albino rats having an average weight of about 150 g, subdivided into groups of 10 animals (5 males and 5 females) were used for each dose and for each method of administration.
The methods of administration were: oral by means of a gastric probe, intramuscular and endovenous into the caudal vein.
as §1

physchem = conditions: solid storage
[5] = 375 mg/kg/os daily, 4 days (= 300 mg/kg glucosamine sulphate)
[6] = 750 mg/kg/os daily, 4 days (= 600 mg/kg glucosamine sulphate)
[7] = im, intramuscular, max. dose 3750 mg/kg
[8] = iv, endovenous, max. dose 1875 mg/kg

## N[C@H]1C(O)O[C@H](CO)[C@@H](O)[C@@H]1O (stereo partly shown) [Glucosamine-SP, mixed salt of glucosamine sulphate and sodium chloride]
[1]; benzene, chloroform, carbon tetrachloride, methylene chloride, ligroin, ethyl ether
  Solubility (in words): insoluble
[1]; organic solvent or mixture, acetone, acetonitrile, tetrahydrofuran, dioxan (each)
  solubility thermodynamic: < 100 µg/mL
[1]; organic solvent or mixture, ethanol
  solubility thermodynamic: ~300 µg/mL
[1]; organic solvent or mixture, methanol
  solubility thermodynamic: ~10000 µg/mL
[1]; water
  solubility thermodynamic: ~400000 µg/mL
pH of aqueous solution; 20° C.
  pH of an aqueous saturated solution: 3.0±0.2
pH of aqueous solution; injectable phial concentrations
  natural pH at the concentrations used: about 3
mice-embryo fibroblast [2]; 12.5 γ/ml
  Soluble GAG synthesis, average ± s.e.: 6750 ± 718 cpm
mice-embryo fibroblast [2]; 62.5 γ/ml
  Soluble GAG synthesis, average ± s.e.: 12730 ± 1201 cpm
mice-embryo fibroblast [2]; 125 γ/ml
  Soluble GAG synthesis, average ± s.e.: 12440 ± 1473 cpm
mice-embryo fibroblast [2]; Mus musculus, Fibroblast, 24 h, 12.5 γ/ml, read-out: Δ % over non-treated controls, soluble GAG
  activation at 12.5 µg/mL: 15.8%
mice-embryo fibroblast [2]; Mus musculus, Fibroblast, 24 h, 62.5 γ/ml, read-out: Δ % over non-treated controls, soluble GAG
  activation at 62.5 µg/mL: 118%
mice-embryo fibroblast [2]; Mus musculus, Fibroblast, 24 h, 125 γ/ml, read-out: Δ % over non-treated controls, soluble GAG
  activation at 125 µg/mL: 113%
mice-embryo fibroblast [3]; 12.5 γ/ml
  Tissue-bound GAG synthesis: 5490 ± 604 cpm
mice-embryo fibroblast [3]; 62.5 γ/ml
  Tissue-bound GAG synthesis: 7780 ± 612 cpm
mice-embryo fibroblast [3]; 125 γ/ml
  Tissue-bound GAG synthesis: 8320 ± 1295 cpm
mice-embryo fibroblast [3]; Mus musculus, Fibroblast, 24 h, 12.5 γ/ml, read-out: Δ % over non-treated controls, tissue-bound GAG
  activation at 12.5 µg/mL: 17.3%
mice-embryo fibroblast [3]; Mus musculus, Fibroblast, 24 h, 62.5 γ/ml, read-out: Δ % over non-treated controls, tissue-bound GAG
  activation at 62.5 µg/mL: 66.2%
mice-embryo fibroblast [3]; Mus musculus, Fibroblast, 24 h, 125 γ/ml, read-out: Δ % over non-treated controls, tissue-bound GAG
  activation at 125 µg/mL: 77.8%
[4]; [5]
  % Inhibition of granuloma: 38.7%
  Average dry weight of the granuloma (average ± s.e.): 94.6 ± 10.7
[4]; [6]
  % Inhibition of granuloma: 58.0%
  Average dry weight of the granuloma (average ± s.e.): 64.8 ± 7.0
Acute toxicity in mice; im, intramuscular
  LD50 at 240 h: > 3750 mg/kg
Acute toxicity in mice; [7]
  mortality at 240 h: 0%
Acute toxicity in mice; iv, endovenous
  LD50 at 240 h: > 1880 mg/kg
Acute toxicity in mice; [8]
  mortality at 240 h: 0%
Acute toxicity in mice; oral
  LD50 at 240 h: > 6250 mg/kg
Acute toxicity in mice; oral, max. dose 6250 mg/kg
  mortality at 240 h: 0%
Acute toxicity in rats; im, intramuscular
  LD50 at 240 h: > 3750 mg/kg
Acute toxicity in rats; [7]
  mortality at 240 h: 0%
Acute toxicity in rats; iv, endovenous
  LD50 at 240 h: > 1880 mg/kg
Acute toxicity in rats; [8]
  mortality at 240 h: 0%
Acute toxicity in rats; oral
  LD50 at 240 h: > 6250 mg/kg
Acute toxicity in rats; oral, max. dose 6250 mg/kg
  mortality at 240 h: 0%
15° C., 30% R.H., 0 days
  Appearance: 1
  Titre of glucosamine: 101.2%
15° C., 30% R.H., 7 days
  Appearance: 1
15° C., 30% R.H., 15 days
  Appearance: 1
15° C., 30% R.H., 30 days
  Appearance: 1
15° C., 30% R.H., 60 days
  Appearance: 1
15° C., 30% R.H., 120 days
  Appearance: 1
15° C., 30% R.H., 360 days
  Appearance: 1
15° C., 45% R.H., 0 days
  Appearance: 1
  Titre of glucosamine: 100.7%
15° C., 45% R.H., 7 days
  Appearance: 1
15° C., 45% R.H., 15 days
  Appearance: 1
15° C., 45% R.H., 30 days
  Appearance: 1
15° C., 45% R.H., 60 days
  Appearance: 1
15° C., 45% R.H., 120 days
  Appearance: 1
15° C., 45% R.H., 360 days
  Appearance: 1
15° C., 60% R.H., 0 days
  Appearance: 1
  Titre of glucosamine: 101.2%
15° C., 60% R.H., 3 days
  Appearance: 1
15° C., 60% R.H., 6 days
  Appearance: 1
15° C., 60% R.H., 12 days
  Appearance: 1
15° C., 60% R.H., 24 days
  Appearance: 1
15° C., 60% R.H., 36 days
  Appearance: 1
15° C., 60% R.H., 48 days
  Appearance: 1
25° C., 30% R.H., 0 days
  Appearance: 1
25° C., 30% R.H., 7 days
  Appearance: 1
25° C., 30% R.H., 15 days
  Appearance: 1
25° C., 30% R.H., 30 days
  Appearance: 1
25° C., 30% R.H., 60 days
  Appearance: 1
25° C., 30% R.H., 120 days
  Appearance: 1
25° C., 30% R.H., 360 days
  Appearance: 1
25° C., 45% R.H., 0 days
  Appearance: 1
  Titre of glucosamine: 98.9%
25° C., 45% R.H., 3 days
  Appearance: 1
25° C., 45% R.H., 6 days
  Appearance: 1
25° C., 45% R.H., 12 days
  Appearance: 1
25° C., 45% R.H., 24 days
  Appearance: 1
25° C., 45% R.H., 36 days
  Appearance: 1
25° C., 45% R.H., 48 days
  Appearance: 1
25° C., 60% R.H., 0 hours
  Appearance: 1
  Titre of glucosamine: 100.7%
25° C., 60% R.H., 2 hours
  Appearance: 1
25° C., 60% R.H., 4 hours
  Appearance: 1
25° C., 60% R.H., 8 hours
  Appearance: 1
25° C., 60% R.H., 16 hours
  Appearance: 1
25° C., 60% R.H., 24 hours
  Appearance: 1
25° C., 60% R.H., 36 hours
  Appearance: 1
25° C., 60% relative humidity, one year
  Preservation after one year: perfectly preserved
40° C., 85% relative humidity, about 12 months
  Colour change: slight darkening of the colour
40° C., 85% relative humidity, months 12 to 24
  Change in the subsequent 12 months: remains constant
All temperature/humidity conditions of Tables 1 to 6
  Appearance scale value assigned in all the tests: 1
Even at high temperatures
  Sensitivity to ambient relative humidity: practically negligible
Solid storage, 8 h
  Titre of glucosamine: 101.2%
Solid storage, 24 h
  Titre of glucosamine: 99.2%
Solid storage, 1152 h
  Titre of glucosamine: 98.4%
Solid storage, 1440 h
  Titre of glucosamine: 98.6%
physchem; 85% rh
  degraded at 8760 h: 3 to 4%
physchem; Titre of glucosamine
  remaining at 36 h: 100%
  remaining at 1152 h: 101%
